The results in this text go back to patent US9353090B2, “Heterocyclic carboxylic acids as activators of soluble guanylate cyclase” (Boehringer Ingelheim International GmbH, priority 2014, dated 2016).

The target in series [1] is human soluble guanylate cyclase alpha 1 and beta 1 subunits (sGC) (Homo sapiens (Human), UniProt Q02108+Q02153). Put plainly: sGC cellular activator assay (cGMP, HTRF), in the presence and absence of 50% human serum. Format: cell-based. Particulars: CHO cells stably expressing human sGC alpha 1/beta 1, preincubated with 40 microM ODQ; cGMP by HTRF; Table 2 does not state whether with or without 50% human serum. The gist of the method:
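First, CHO-sGC (human α1β1) cells get 1 h ODQ at 40 microM with IBMX and 0.1% BSA. Finally, cGMP is quantified by HTRF and EC50 computed.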

Series [2] in a line: Human liver microsome (HLM) metabolic stability assay. Format: in vitro ADME. To be noted: human liver microsomes. The gist of the method:
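Remaining parent measured by LC/MS/MS (ESI, MRM) at 5, 15, 30 and 60 min relative to 0 min. Incubation: 1 uM compound, HLMs, NADPH-started, 37° C., 60 min total, single replicate. Slope of ln(% remaining) gives t1/2 = 0.693/slope, then CLint, CLh and % Qh.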

The nature of series [3]: physchem. Particulars: kinetic from dmso stock.
Protocol: Solubility is measured by the following method.
100 uL, 10 mM DMSO stock solution of each compound is prepared in a 96 well plate format. The experiment is done in single determination at 3 pH values (2.2, 4.5 and 6.8). For each pH and one reference, 40 uL of each compound is needed.
McIlvaine pH 2.2: To 2.076 g citric acid monohydrate and 0.043 g Na2HPO4×2H2O add 100 ml deionized water
McIlvaine pH 4.5: To 1.166 g citric acid monohydrate and 1.585 g Na2HPO4×2H2O add 100 ml deionized water
McIlvaine pH 6.8: To 0.476 g citric acid monohydrate and 2.753 g Na2HPO4×2H2O add 100 ml deionized water
With a suitable liquid handling device (Multipette® or a liquid handler) 390 uL of each buffer solution and 10 uL of compound is added to each well of a 96 deep well plate. The plates are covered firmly and shaken for 24 h on an over head shaker (at 54 RPM) at room temperature. The DMSO content in the final buffer is 2.5% v/v.
After 24 h the plates are centrifuged to remove droplets on the lid before opening (for ˜5 min at 2500 RPM).
The filtration is done under vacuum with Millipore 96 well filter plate. Filtrate is collected in a deep well plate and transferred to a suitable plate for UPLC analysis.
The reference plate is prepared by adding 10 uL of compound to 390 uL of 50:50 acetonitrile/water in a 96 deep well plate and transferred to a suitable plate for UPLC analysis. Wells are checked visually for precipitation, any presence noted under comments in reported results.
The samples are measured with UPLC-UV using the chromatographic method described below.
Waters Empower®2 software is used for generating Sample Sets (according to the plate layout), Sample Set Methods and Instrument Methods.
One Sample Set comprises the methods for three 96 well plates (one reference plate and two sample plates, and includes one Sample Set Method and one Instrument Method).
Data Processing and Analysis
The UV chromatograms collected at 254 nm are integrated and processed.
It is assumed that the compound is completely dissolved in the reference solution (50:50 acetonitrile/water)
Where [4] appears, read: pH 2.2, aqueous buffer, Solubility (pH 2.2).
[5] abbreviates: pH 4.5, aqueous buffer, Solubility (pH 4.5).
The mark [6] stands for this setting: pH 6.8, aqueous buffer, Solubility (pH 6.8).

≈ marks a conversion by molar mass, not a printed value.

Sequence of human soluble guanylate cyclase alpha 1 and beta 1 subunits (sGC) (Q02108 whole entry partner): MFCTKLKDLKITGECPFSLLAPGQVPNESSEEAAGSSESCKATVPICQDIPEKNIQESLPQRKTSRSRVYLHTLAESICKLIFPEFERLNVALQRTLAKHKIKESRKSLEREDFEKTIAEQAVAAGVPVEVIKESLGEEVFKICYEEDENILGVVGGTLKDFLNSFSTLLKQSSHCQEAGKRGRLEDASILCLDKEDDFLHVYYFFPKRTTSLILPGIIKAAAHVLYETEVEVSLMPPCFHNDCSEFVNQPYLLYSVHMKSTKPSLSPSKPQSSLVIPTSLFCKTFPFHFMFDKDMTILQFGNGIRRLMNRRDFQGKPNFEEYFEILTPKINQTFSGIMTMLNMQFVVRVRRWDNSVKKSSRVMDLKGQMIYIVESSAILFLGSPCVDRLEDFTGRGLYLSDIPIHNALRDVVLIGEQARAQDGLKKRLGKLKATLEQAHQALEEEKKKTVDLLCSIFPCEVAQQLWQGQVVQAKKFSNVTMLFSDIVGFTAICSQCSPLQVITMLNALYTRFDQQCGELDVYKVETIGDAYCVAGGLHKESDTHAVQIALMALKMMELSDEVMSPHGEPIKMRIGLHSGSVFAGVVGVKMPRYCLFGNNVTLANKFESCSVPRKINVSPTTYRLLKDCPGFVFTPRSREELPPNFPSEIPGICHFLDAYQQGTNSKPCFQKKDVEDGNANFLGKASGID
Sequence of human soluble guanylate cyclase alpha 1 and beta 1 subunits (sGC) (Q02153 whole entry): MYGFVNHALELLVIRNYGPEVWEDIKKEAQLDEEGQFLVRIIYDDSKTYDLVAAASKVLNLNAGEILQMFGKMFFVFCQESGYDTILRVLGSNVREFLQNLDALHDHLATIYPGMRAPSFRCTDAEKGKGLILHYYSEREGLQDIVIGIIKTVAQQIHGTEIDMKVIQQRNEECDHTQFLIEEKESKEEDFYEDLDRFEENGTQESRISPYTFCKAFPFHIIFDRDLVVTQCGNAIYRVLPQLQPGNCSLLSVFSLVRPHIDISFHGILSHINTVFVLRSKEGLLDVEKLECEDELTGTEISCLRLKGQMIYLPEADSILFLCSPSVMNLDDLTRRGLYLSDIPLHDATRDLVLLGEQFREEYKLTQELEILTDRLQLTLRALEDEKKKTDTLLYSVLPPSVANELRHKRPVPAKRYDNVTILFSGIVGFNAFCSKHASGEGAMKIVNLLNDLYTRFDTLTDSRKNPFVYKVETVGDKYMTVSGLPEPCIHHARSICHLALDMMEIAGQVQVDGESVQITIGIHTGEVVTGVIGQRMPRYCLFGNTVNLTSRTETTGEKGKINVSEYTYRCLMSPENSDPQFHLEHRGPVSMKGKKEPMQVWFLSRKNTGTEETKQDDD

`CO[C@@H]1CN(c2cccc(-c3cc(C)ccc3OCc3cc(C)c4c(c3)CCN(C3CCOC3)C4)n2)CC[C@@H]1C(=O)O` (stereo partly shown) [Compound 77]: the midpoint of the response in series [1], the EC50, lay at 71 nM. Also, the “Metabolic stability (Qh %), % hepatic blood flow” value (shortened to “Metabolic stability (Qh %)”) in series [2] is below 24%. Besides, the solubility at 24 h in series [3] (setting [4]) was found to be 110 µg/mL (≈ 192 µM); in series [3] (setting [5]), 95 µg/mL (≈ 166 µM); in series [3] (setting [6]), 64 µg/mL (≈ 112 µM).

In series [1], `CCc1cc(COc2ccc(C)cc2-c2cccc(N3CC[C@H](C(=O)O)[C@H](OC)C3)n2)cc2c1CN(C1CCOCC1)CC2` [Compound 79] had an EC50 of 25 nM. Moreover, the “Metabolic stability (Qh %)” value in series [2] is below 24%. Further, the solubility at 24 h in series [3] (setting [4]) is 140 µg/mL (≈ 233 µM); in series [3] (setting [5]), 120 µg/mL (≈ 200 µM); in series [3] (setting [6]), 91 µg/mL (≈ 152 µM).

In the case of `COc1cc(COc2ccc(C)cc2-c2cccc(N3CC[C@H](C(=O)O)[C@H](OC)C3)n2)cc2c1CN(C1CCOCC1)CC2` [Compound 80], in series [1], it took 23 nM to reach a half-maximal effect (EC50). In addition, the “Metabolic stability (Qh %)” value in series [2] was below 24%. The solubility at 24 h in series [3] (setting [4]) turned out to be 150 µg/mL (≈ 249 µM); in series [3] (setting [5]), 130 µg/mL (≈ 216 µM); in series [3] (setting [6]), 92 µg/mL (≈ 153 µM).

Turning to `CO[C@@H]1CN(c2cccc(-c3cc(C)ccc3OCc3ccc4c(c3C)CCN(C3CCOCC3)CC4)n2)CC[C@@H]1C(=O)O` [Compound 81], the EC50 in series [1] is 30 nM. Also, the “Metabolic stability (Qh %)” value in series [2] came out at 30%. The solubility at 24 h in series [3] (setting [4]) is above 160 µg/mL; in series [3] (setting [5]), above 160 µg/mL; in series [3] (setting [6]) it was 91 µg/mL (≈ 152 µM).

On to `O=C(O)[C@@]12CCN(c3nc(-c4ccccc4OCc4ccc5c(c4)CCN(C4CCOCC4)C5)cs3)C[C@@H]1C2` [Compound 82], for which the EC50 in series [1] amounted to 10 nM. In series [2], the “Metabolic stability (Qh %)” value is on record as below 24%. In addition, the solubility at 24 h in series [3] (setting [4]) turned out to be 100 µg/mL (≈ 183 µM); in series [3] (setting [5]), 40 µg/mL (≈ 73.3 µM); in series [3] (setting [6]) it was 22 µg/mL (≈ 40.3 µM).

In series [1], `Cc1c(COc2ccccc2-c2csc(N3CC[C@@]4(C(=O)O)C[C@H]4C3)n2)ccc2c1CCN(C1CCOCC1)C2` [Compound 83] displayed an EC50 of 4 nM. The “Metabolic stability (Qh %)” value in series [2] was below 24%. The solubility at 24 h in series [3] (setting [4]) was 120 µg/mL (≈ 214 µM); in series [3] (setting [5]), 47 µg/mL (≈ 84 µM); in series [3] (setting [6]), 13 µg/mL (≈ 23.2 µM).

For `Cc1cccc(-c2csc(N3CC[C@@]4(C(=O)O)C[C@H]4C3)n2)c1OCc1ccc2c(c1)CCN(C1CCOCC1)C2` [Compound 84], the EC50 in series [1] was found to be 27 nM. For the same compound, in series [2], the “Metabolic stability (Qh %)” value is listed as below 24%. In addition, the solubility at 24 h came out at 120 µg/mL (≈ 214 µM) in series [3] (setting [4]), 70 µg/mL (≈ 125 µM) in series [3] (setting [5]) and 53 µg/mL (≈ 94.7 µM) in series [3] (setting [6]).

As to `Cc1cccc(-c2csc(N3CC[C@@]4(C(=O)O)C[C@H]4C3)n2)c1OCc1ccc2c(c1)CCN(C1COC1)C2` [Compound 85], it took 28 nM to reach a half-maximal effect in series [1] (EC50). Moreover, the “Metabolic stability (Qh %)” value in series [2] was found to be 29%. The solubility at 24 h in series [3] (setting [4]) is 120 µg/mL (≈ 226 µM); in series [3] (setting [5]), 52 µg/mL (≈ 97.8 µM); in series [3] (setting [6]) it was 55 µg/mL (≈ 103 µM).

For the compound `Cc1cccc(-c2csc(N3CC[C@@]4(C(=O)O)C[C@H]4C3)n2)c1OCc1ccc2c(c1C)CCN(CC1COCCO1)C2` (stereo partly shown) [Compound 86], the EC50 in series [1] is 2 nM. The “Metabolic stability (Qh %)” value in series [2] came to 41%. The solubility at 24 h in series [3] (setting [4]) was determined as 120 µg/mL (≈ 203 µM); in series [3] (setting [5]), 71 µg/mL (≈ 120 µM); in series [3] (setting [6]), 57 µg/mL (≈ 96.6 µM).

Consider `Cc1cccc(-c2csc(N3CC[C@@]4(C(=O)O)C[C@H]4C3)n2)c1OCc1ccc2c(c1C)CCN(C1CCCOC1)C2` (stereo partly shown) [Compound 87], for which the midpoint of the response in series [1], the EC50, lay at 2 nM. In addition, the “Metabolic stability (Qh %)” value in series [2] is given as 55%. For the same compound, the solubility at 24 h was found to be 120 µg/mL (≈ 209 µM) in series [3] (setting [4]), 67 µg/mL (≈ 117 µM) in series [3] (setting [5]) and 28 µg/mL (≈ 48.8 µM) in series [3] (setting [6]).

On to `Cc1cccc(-c2csc(N3CC[C@@]4(C(=O)O)C[C@H]4C3)n2)c1OCc1ccc2c(c1C)CCN(C1CCOC1)C2` (stereo partly shown) [Compound 88], for which a half-maximal effect in series [1] (EC50) was put at 4 nM. Besides, in series [2], the “Metabolic stability (Qh %)” value was 43%. Also, the solubility at 24 h is 120 µg/mL (≈ 214 µM) in series [3] (setting [4]), 69 µg/mL (≈ 123 µM) in series [3] (setting [5]) and 48 µg/mL (≈ 85.8 µM) in series [3] (setting [6]).

Compound `Cc1cc(COc2c(C)cccc2-c2csc(N3CC[C@@]4(C(=O)O)C[C@H]4C3)n2)cc2c1CN(CC1COCCO1)CC2` (stereo partly shown) [Compound 91] yielded an EC50 in series [1] of 3 nM. Besides, in series [2], the “Metabolic stability (Qh %)” value is recorded as below 24%. For the same compound, the solubility at 24 h in series [3] (setting [4]) was 120 µg/mL (≈ 203 µM); in series [3] (setting [5]), 68 µg/mL (≈ 115 µM); in series [3] (setting [6]) it was 41 µg/mL (≈ 69.5 µM).

`Cc1cc(COc2c(C)cccc2-c2csc(N3CC[C@@]4(C(=O)O)C[C@H]4C3)n2)cc2c1CN(C1CCCOC1)CC2` (stereo partly shown) [Compound 94] showed an EC50 in series [1] of 3 nM. Besides, the “Metabolic stability (Qh %)” value in series [2] was found to be 42%. Besides, the solubility at 24 h is 120 µg/mL (≈ 209 µM) in series [3] (setting [4]), 55 µg/mL (≈ 95.9 µM) in series [3] (setting [5]) and 19 µg/mL (≈ 33.1 µM) in series [3] (setting [6]).

The compound `Cc1cc(COc2c(C)cccc2-c2csc(N3CC[C@@]4(C(=O)O)C[C@H]4C3)n2)cc2c1CN(C1CCOC1)CC2` (stereo partly shown) [Compound 95] showed an EC50 in series [1] of 2 nM. The “Metabolic stability (Qh %)” value in series [2] came to 49%. Moreover, the solubility at 24 h came to 120 µg/mL (≈ 214 µM) in series [3] (setting [4]), 66 µg/mL (≈ 118 µM) in series [3] (setting [5]) and 31 µg/mL (≈ 55.4 µM) in series [3] (setting [6]).

For the compound `Cc1cc(COc2c(C)cccc2-c2csc(N3CC[C@@]4(C(=O)O)C[C@H]4C3)n2)cc2c1CN(C1CCOCC1)CC2` [Compound 96], in series [1], the EC50 came out at 2 nM. Also, the “Metabolic stability (Qh %)” value in series [2] came to 33%. The solubility at 24 h in series [3] (setting [4]) is 120 µg/mL (≈ 209 µM); in series [3] (setting [5]), 68 µg/mL (≈ 119 µM); in series [3] (setting [6]) it was 52 µg/mL (≈ 90.6 µM).

In turn, `Cc1cc(COc2c(C)cccc2-c2csc(N3CC[C@@]4(C(=O)O)C[C@H]4C3)n2)c(C)c2c1CN(CC1COCCO1)CC2` (stereo partly shown) [Compound 98] came in with an EC50 in series [1] of 1 nM. In addition, in series [2], the “Metabolic stability (Qh %)” value is reported as 48%. Further, the values for the solubility at 24 h in series [3] (setting [4]), in series [3] (setting [5]) and in series [3] (setting [6]) were 120 µg/mL (≈ 199 µM), 75 µg/mL (≈ 124 µM) and 31 µg/mL (≈ 51.3 µM), respectively.

In series [1], `Cc1cc(COc2c(C)cccc2-c2csc(N3CC[C@@]4(C(=O)O)C[C@H]4C3)n2)c(C)c2c1CN(C1CCCOC1)CC2` (stereo partly shown) [Compound 99] gave an EC50 of 3 nM. The “Metabolic stability (Qh %)” value in series [2] is given as 59%. Also, the solubility at 24 h in series [3] (setting [4]) was determined as 120 µg/mL (≈ 204 µM); in series [3] (setting [5]) it was 69 µg/mL (≈ 117 µM); in series [3] (setting [6]), 14 µg/mL (≈ 23.8 µM).

As to `Cc1cc(COc2c(C)cccc2-c2csc(N3CC[C@@]4(C(=O)O)C[C@H]4C3)n2)c(C)c2c1CN(C1CCOC1)CC2` (stereo partly shown) [Compound 100], in series [1], the EC50 came to 3 nM. In series [2], the “Metabolic stability (Qh %)” value worked out at 55%. Further, the solubility at 24 h in series [3] (setting [4]) is 130 µg/mL (≈ 227 µM); in series [3] (setting [5]) it was 68 µg/mL (≈ 119 µM); in series [3] (setting [6]) it was 27 µg/mL (≈ 47.1 µM).

Consider `Cc1cc(COc2c(C)cccc2-c2csc(N3CC[C@@]4(C(=O)O)C[C@H]4C3)n2)c(C)c2c1CN(C1CCOCC1)CC2` [Compound 101], for which, in series [1], the EC50 amounted to 3 nM. Moreover, the “Metabolic stability (Qh %)” value in series [2] is listed as 61%. Besides, the values for the solubility at 24 h in series [3] (setting [4]), in series [3] (setting [5]) and in series [3] (setting [6]) were 120 µg/mL (≈ 204 µM), 79 µg/mL (≈ 134 µM) and 38 µg/mL (≈ 64.6 µM), respectively.

As for `Cc1cc(COc2c(C)cccc2-c2csc(N3CC[C@@]4(C(=O)O)C[C@H]4C3)n2)c(C)c2c1CN(C1COC1)CC2` [Compound 102], the EC50 in series [1] came out at 3 nM. Further, the “Metabolic stability (Qh %)” value in series [2] came to 52%. In addition, the values for the solubility at 24 h in series [3] (setting [4]), in series [3] (setting [5]) and in series [3] (setting [6]) were 130 µg/mL (≈ 232 µM), 41 µg/mL (≈ 73.2 µM) and 54 µg/mL (≈ 96.5 µM), respectively.
